# In patent US20070149554A1, “Cancer chemotherapy” (Yung Shin Pharmaceutical Ind. Co., Ltd., priority 2005, published 2007):
# Tests used:
# A498 renal cancer cells = test: A498 renal cancer xenograft tumor growth in athymic nude mice; format: in vivo; conditions: single agent; Compound 1 10 mg/kg/day oral in 0.5% CMC; paclitaxel or doxorubicin 20 mg/kg/week i.p.; nude mice with A498 tumors
# Experimental: Athymic nude mice (BALB/c nu/nu female, 6-8 week old) were housed at 22° C. on a 12 h light/dark cycle. The mice were subcutaneously injected with A498 renal cancer cells (10^7 cell/mouse). After inoculation for 15 days, tumors were grown to a size of 100 to 150 mm^3. The mice were then randomly divided into six grounds (5 mice in each group). […] (paclitaxel and doxorubicin are commercial products). […] The tumors were carefully removed and weighed.
# Hep3B cells = conditions: cited from earlier work
# WEHI-3 cells [1] = test: DNA fragmentation by agarose gel electrophoresis in WEHI-3 cells; conditions: compound 1 at 5 μM, 12 and 24 h; FIG. 4A
# Experimental: (§1) The results were expressed as mean±S.D. and the difference between the groups was tested by one way ANOVA.
# [2] = tested on: human hepatocellular carcinoma HA22T cells; conditions: cited from earlier work
# platelet = conditions: cited from earlier work
# WEHI-3 cells [3] = test: TUNEL/DAPI staining (apoptosis) in WEHI-3 cells; format: cell-based, murine; conditions: for TUNEL positive cells: 24 h, FIG. 3B; for nuclear shrinkage, chromatin condensation and DNA fragmentation (TUNEL/DAPI): 24 h culture, FIG. 3A
# WEHI-3 leukemia cells = test: Survival, organ and body weight, spleen histopathology of BALB/c mice bearing WEHI-3 leukemia cells; format: in vivo; conditions: for mean survival time of WEHI-3/BALB/c mice: 30 mg/kg/mouse i.p., untreated 30 days, text of b65; for Survival days Range / Survival days Mean ± S.D.: 30 mg/kg/mouse, QD*7 (once two days by seven times), 10 mice; for Survival days Range: untreated 20-30; for Survival days Mean ± S.D.: untreated 26.0 ± 3.9; for infiltration of immature myeloblastic cells into splenic red pulp: H-E stain of spleen section, FIG. 2; for body weight loss in leukemia mice: within one month of experiment, data not shown
# Experimental: Murine myelomonocytic leukemia cell line WEHI-3 was obtained from the Food Industry Research and Development Institute (Hsinchu, Taiwan). […] This cell line can induce leukemia in syngenic BALB/c mice for evaluating anti-leukemia effects of drugs.
# Specifically, BLAB/c mice were divided into 4 groups. Group I was injected i.p. with WEHI-3 only. […] Control mice and all groups of mice were treated for 2 weeks before the animals were weighed and the blood was draw and sacrificed for further experiments.
# The spleen and liver tissues were isolated from individual animals, photographed, weighed, and histopathologically examined.
# WEHI-3 cells [4] = test: NBT reduction (differentiation) in WEHI-3 cells; format: cell-based, murine; conditions: 24 h; for percentages of NBT positive cells: FIG. 3B
# caspase-3 = test: Caspase-3 activity assay in WEHI-3 cells; conditions: 12, 18 and 24 h treatment; 50 μM of compound 1; FIG. 4B
# Experimental: as §1
# WEHI-3 cells [5] = test: Cell cycle analysis of WEHI-3 cells in vitro; format: cell-based, murine; conditions: compound 1 5 μM, ATRA 1 μM, 24 h; data not shown
Compound,tumor size compared with control group (A498 renal cancer cells),hypoxia induction of erythropoietin and vascular endothelial growth factor (Hep3B cells),DNA fragmentation (agarose gel) (WEHI-3 cells [1]),cell cycle arrest [2],antiplatelet activity (platelet),TUNEL positive cells (WEHI-3 cells [3]) [%],"nuclear shrinkage, chromatin condensation and DNA fragmentation (TUNEL/DAPI) (WEHI-3 cells [3])",mean survival time of WEHI-3/BALB/c mice (WEHI-3 leukemia cells) [days],Survival days Range (WEHI-3 leukemia cells) [days],Survival days Mean ± S.D. (WEHI-3 leukemia cells) [days],infiltration of immature myeloblastic cells into splenic red pulp (WEHI-3 leukemia cells),body weight loss in leukemia mice (WEHI-3 leukemia cells),percentages of NBT positive cells (WEHI-3 cells [4]) [%],caspase-3 activity (caspase-3),sub-G1 population (WEHI-3 cells [5]),NBT-reduction compared with control cells (WEHI-3 cells [4])
"CC(=O)O[C@H]1C(=O)[C@@]2(C)[C@H]([C@H](OC(=O)c3ccccc3)[C@]3(O)C[C@H](OC(=O)[C@H](O)[C@@H](NC(=O)c4ccccc4)c4ccccc4)C(C)=C1C3(C)C)[C@]1(OC(C)=O)CO[C@@H]1C[C@@H]2O [paclitaxel, Paclitaxel]",smaller tumors than those in the control group,,,,,,,,,,,,,,,
"COc1cccc2c1C(=O)c1c(O)c3c(c(O)c1C2=O)C[C@@](O)(C(=O)CO)C[C@@H]3O[C@H]1C[C@H](N)[C@H](O)[C@H](C)O1 [doxorubicin, Doxorubicin]",smaller tumors than those in the control group,,,,,,,,,,,,,,,
"OCc1ccc(-c2nn(Cc3ccccc3)c3ccccc23)o1 [Compound 1, 1-benzyl-3-(5′-hydroxymethyl-2′-furyl)indazole]",smaller tumors than those in the control group,inhibits hypoxia induction of erythropoietin and vascular endothelial growth factor,fragmented into a ladder of 180-200 base pairs,arresting cell cycles at the Go/G1 stage,novel antiplatelet agent,40.33,"exhibited nuclear shrinkage, chromatin condensation and DNA fragmentation",40,22 to 40,32.3 ± 4.9,reduced,improved the body weight loss,3.56,rapid induction of caspase-3 activity,increased sub-GI population,
"CC1=C(/C=C/C(C)=C/C=C/C(C)=C/C(=O)O)C(C)(C)CCC1 [ATRA, all trans retinoic acid, reference compound]",,,,,,5.45,not observed,42,26 to 42,33.9 ± 5.0,reduced,improved the body weight loss,33.42,,,significant increases
